# Data from PubChem BioAssay (NCI).
#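 Results reflect a 48-hour exposure of cells in 96-well plates to compound at five concentrations. GI50: concentration for 50% inhibition of growth. TGI denotes the concentration required for complete inhibition of growth.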
# Key:
# Assay in all cases: inhibition of tumour cell growth, NCI panel, 48 h
# HOP-62 NSCLC = system: HOP-62 NSCLC
# UACC-62 melanoma = system: UACC-62 melanoma
# HT29 colon = system: HT29 colon
# NCI-H522 lung = system: NCI-H522 lung
# MOLT-4 leukemia = system: MOLT-4 leukemia
# SK-MEL-2 melanoma = system: SK-MEL-2 melanoma
# SNB-75 CNS = system: SNB-75 CNS
# HCT-116 colon = system: HCT-116 colon
# CAKI-1 renal = system: CAKI-1 renal
# BT-549 breast = system: BT-549 breast
# SNB-19 CNS = system: SNB-19 CNS
# SN12C renal = system: SN12C renal
# SF-539 CNS = system: SF-539 CNS
# EKVX NSCLC = system: EKVX NSCLC
# CCRF-CEM leukemia = system: CCRF-CEM leukemia
# OVCAR-8 ovarian = system: OVCAR-8 ovarian
# HCT-15 colon = system: HCT-15 colon
# A549 NSCLC = system: A549 NSCLC
# UO-31 renal = system: UO-31 renal
# UACC-257 melanoma = system: UACC-257 melanoma
# DU-145 prostate = system: DU-145 prostate
# MALME-3M melanoma = system: MALME-3M melanoma
# HL-60(TB) leukemia = system: HL-60(TB) leukemia
# LOX IMVI melanoma = system: LOX IMVI melanoma
# MDA-MB-435 = system: MDA-MB-435
# OVCAR-5 ovarian = system: OVCAR-5 ovarian
# OVCAR-4 ovarian = system: OVCAR-4 ovarian
# IGROV1 ovarian = system: IGROV1 ovarian
# NCI-H460 lung = system: NCI-H460 lung
# COLO 205 colon = system: COLO 205 colon
# SK-OV-3 ovarian = system: SK-OV-3 ovarian
# SR leukemia = system: SR leukemia
# HS 578T breast = system: HS 578T breast
# M14 melanoma = system: M14 melanoma
# OVCAR-3 ovarian = system: OVCAR-3 ovarian
# SK-MEL-28 melanoma = system: SK-MEL-28 melanoma
# ACHN renal = system: ACHN renal
# NCI/ADR-RES ovarian = system: NCI/ADR-RES ovarian
# PC-3 prostate = system: PC-3 prostate
# U251 CNS = system: U251 CNS
# T-47D breast = system: T-47D breast
# MCF7 breast = system: MCF7 breast
# SF-295 CNS = system: SF-295 CNS
# KM12 colon = system: KM12 colon
# SF-268 CNS = system: SF-268 CNS
# TK-10 renal = system: TK-10 renal
# 786-0 renal = system: 786-0 renal
# HCC-2998 colon = system: HCC-2998 colon
# A498 renal = system: A498 renal
# NCI-H226 lung = system: NCI-H226 lung
# SW-620 colon = system: SW-620 colon
# MDA-MB-231 breast = system: MDA-MB-231 breast
# NCI-H23 lung = system: NCI-H23 lung
# K-562 leukemia = system: K-562 leukemia
# RXF 393 renal = system: RXF 393 renal
# SK-MEL-5 melanoma = system: SK-MEL-5 melanoma
# HOP-92 NSCLC = system: HOP-92 NSCLC
# RPMI-8226 leukemia = system: RPMI-8226 leukemia
structure (smiles),measurement,setting,value
CN(CCCNC(=O)c1nn(-c2ccccc2)c2c1ccc1ccccc12)CCCNC(=O)c1nn(-c2ccccc2)c2c1ccc1ccccc12,TGI,HOP-62 NSCLC,3.69 µM
same,TGI,UACC-62 melanoma,3.03 µM
same,TGI,HT29 colon,3.2 µM
same,TGI,NCI-H522 lung,3.17 µM
same,TGI,MOLT-4 leukemia,3.42 µM
same,TGI,SK-MEL-2 melanoma,3.15 µM
same,TGI,SNB-75 CNS,2.88 µM
same,TGI,HCT-116 colon,3.13 µM
same,TGI,CAKI-1 renal,2.7 µM
same,TGI,BT-549 breast,3.04 µM
same,TGI,SNB-19 CNS,3.29 µM
same,TGI,SN12C renal,3.32 µM
same,TGI,SF-539 CNS,3.62 µM
same,TGI,EKVX NSCLC,3.1 µM
same,TGI,CCRF-CEM leukemia,0.628 µM
same,TGI,OVCAR-8 ovarian,3.38 µM
same,TGI,HCT-15 colon,3.16 µM
same,TGI,A549 NSCLC,2.85 µM
same,TGI,UO-31 renal,2.91 µM
same,TGI,UACC-257 melanoma,3.65 µM
same,TGI,DU-145 prostate,3.92 µM
same,TGI,MALME-3M melanoma,3.47 µM
same,TGI,HL-60(TB) leukemia,3.07 µM
same,TGI,LOX IMVI melanoma,2.95 µM
same,TGI,MDA-MB-435,2.92 µM
same,TGI,OVCAR-5 ovarian,5.24 µM
same,TGI,OVCAR-4 ovarian,3.02 µM
same,TGI,IGROV1 ovarian,2.87 µM
same,TGI,NCI-H460 lung,2.97 µM
same,TGI,COLO 205 colon,3.63 µM
same,TGI,SK-OV-3 ovarian,3.38 µM
same,TGI,SR leukemia,2.75 µM
same,TGI,HS 578T breast,> 100 µM
same,TGI,M14 melanoma,3.16 µM
same,TGI,OVCAR-3 ovarian,2.73 µM
same,TGI,SK-MEL-28 melanoma,3.01 µM
same,TGI,ACHN renal,3.17 µM
same,TGI,NCI/ADR-RES ovarian,3.53 µM
same,TGI,PC-3 prostate,2.77 µM
same,TGI,U251 CNS,3.01 µM
same,TGI,T-47D breast,3.78 µM
same,TGI,MCF7 breast,3.32 µM
same,TGI,SF-295 CNS,3.69 µM
same,TGI,KM12 colon,3.96 µM
same,TGI,SF-268 CNS,3.39 µM
same,TGI,TK-10 renal,3.58 µM
[2H]c1nc(C)nc([2H])c1-c1cc(NC[C@@H](C)c2cccc3c(C(=O)NC)ccnc23)ncn1,GI50,HOP-62 NSCLC,> 100 µM
same,TGI,HOP-62 NSCLC,> 100 µM
same,GI50,UACC-62 melanoma,90.9 µM
same,TGI,UACC-62 melanoma,> 100 µM
same,GI50,786-0 renal,> 100 µM
same,TGI,786-0 renal,> 100 µM
same,GI50,HT29 colon,> 100 µM
same,TGI,HT29 colon,> 100 µM
same,GI50,HCC-2998 colon,> 100 µM
same,TGI,HCC-2998 colon,> 100 µM
same,GI50,NCI-H522 lung,46.4 µM
same,TGI,NCI-H522 lung,> 100 µM
same,GI50,MOLT-4 leukemia,> 100 µM
same,TGI,MOLT-4 leukemia,> 100 µM
same,GI50,SK-MEL-2 melanoma,> 100 µM
same,TGI,SK-MEL-2 melanoma,> 100 µM
same,GI50,SNB-75 CNS,> 100 µM
same,TGI,SNB-75 CNS,> 100 µM
same,GI50,BT-549 breast,> 100 µM
same,TGI,BT-549 breast,> 100 µM
same,GI50,A498 renal,> 100 µM
same,TGI,A498 renal,> 100 µM
same,GI50,SNB-19 CNS,> 100 µM
same,TGI,SNB-19 CNS,> 100 µM
same,GI50,SN12C renal,> 100 µM
same,TGI,SN12C renal,> 100 µM
same,GI50,SF-539 CNS,> 100 µM
same,TGI,SF-539 CNS,> 100 µM
same,GI50,EKVX NSCLC,> 100 µM
same,TGI,EKVX NSCLC,> 100 µM
same,GI50,CCRF-CEM leukemia,65.1 µM
same,TGI,CCRF-CEM leukemia,> 100 µM
same,GI50,OVCAR-8 ovarian,> 100 µM
same,TGI,OVCAR-8 ovarian,> 100 µM
same,GI50,HCT-15 colon,> 100 µM
same,TGI,HCT-15 colon,> 100 µM
same,GI50,A549 NSCLC,> 100 µM
same,TGI,A549 NSCLC,> 100 µM
same,GI50,NCI-H226 lung,> 100 µM
same,TGI,NCI-H226 lung,> 100 µM
same,GI50,UO-31 renal,> 100 µM
same,TGI,UO-31 renal,> 100 µM
same,GI50,UACC-257 melanoma,> 100 µM
same,TGI,UACC-257 melanoma,> 100 µM
same,GI50,DU-145 prostate,> 100 µM
same,TGI,DU-145 prostate,> 100 µM
same,GI50,MALME-3M melanoma,> 100 µM
same,TGI,MALME-3M melanoma,> 100 µM
same,GI50,HL-60(TB) leukemia,> 100 µM
same,TGI,HL-60(TB) leukemia,> 100 µM
same,GI50,SW-620 colon,> 100 µM
same,TGI,SW-620 colon,> 100 µM
same,GI50,LOX IMVI melanoma,> 100 µM
same,TGI,LOX IMVI melanoma,> 100 µM
same,GI50,MDA-MB-435,32.7 µM
same,TGI,MDA-MB-435,> 100 µM
same,GI50,OVCAR-5 ovarian,> 100 µM
same,TGI,OVCAR-5 ovarian,> 100 µM
same,GI50,MDA-MB-231 breast,> 100 µM
same,TGI,MDA-MB-231 breast,> 100 µM
same,GI50,OVCAR-4 ovarian,> 100 µM
same,TGI,OVCAR-4 ovarian,> 100 µM
same,GI50,IGROV1 ovarian,> 100 µM
same,TGI,IGROV1 ovarian,> 100 µM
same,GI50,NCI-H460 lung,> 100 µM
same,TGI,NCI-H460 lung,> 100 µM
same,GI50,COLO 205 colon,> 100 µM
same,TGI,COLO 205 colon,> 100 µM
same,GI50,NCI-H23 lung,> 100 µM
same,TGI,NCI-H23 lung,> 100 µM
same,GI50,SK-OV-3 ovarian,> 100 µM
same,TGI,SK-OV-3 ovarian,> 100 µM
same,GI50,SR leukemia,63.1 µM
same,TGI,SR leukemia,> 100 µM
same,GI50,K-562 leukemia,80.6 µM
same,TGI,K-562 leukemia,> 100 µM
same,GI50,RXF 393 renal,> 100 µM
same,TGI,RXF 393 renal,> 100 µM
same,GI50,HS 578T breast,> 100 µM
same,TGI,HS 578T breast,> 100 µM
same,GI50,M14 melanoma,> 100 µM
same,TGI,M14 melanoma,> 100 µM
same,GI50,SK-MEL-5 melanoma,60.1 µM
same,TGI,SK-MEL-5 melanoma,> 100 µM
same,GI50,HOP-92 NSCLC,> 100 µM
same,TGI,HOP-92 NSCLC,> 100 µM
same,GI50,RPMI-8226 leukemia,78.5 µM
same,TGI,RPMI-8226 leukemia,> 100 µM
same,GI50,OVCAR-3 ovarian,> 100 µM
same,TGI,OVCAR-3 ovarian,> 100 µM
same,GI50,SK-MEL-28 melanoma,> 100 µM
same,TGI,SK-MEL-28 melanoma,> 100 µM
same,GI50,ACHN renal,> 100 µM
same,TGI,ACHN renal,> 100 µM
same,GI50,NCI/ADR-RES ovarian,> 100 µM
same,TGI,NCI/ADR-RES ovarian,> 100 µM
same,GI50,PC-3 prostate,> 100 µM
same,TGI,PC-3 prostate,> 100 µM
same,GI50,U251 CNS,> 100 µM
same,TGI,U251 CNS,> 100 µM
same,GI50,T-47D breast,29 µM
same,TGI,T-47D breast,> 100 µM
same,GI50,SF-295 CNS,> 100 µM
same,TGI,SF-295 CNS,> 100 µM
same,GI50,KM12 colon,> 100 µM
same,TGI,KM12 colon,> 100 µM
same,GI50,SF-268 CNS,> 100 µM
same,TGI,SF-268 CNS,> 100 µM
same,GI50,TK-10 renal,> 100 µM
same,TGI,TK-10 renal,> 100 µM
Cc1c2c(n(C)c1C)C(=O)C1C(C2=O)C2(C)c3ccccc3C1(C)c1ccccc12 (stereo not given),TGI,HOP-62 NSCLC,> 100 µM
same,TGI,UACC-62 melanoma,> 100 µM
same,TGI,786-0 renal,> 100 µM
same,TGI,HT29 colon,> 100 µM
same,TGI,MOLT-4 leukemia,> 100 µM
same,TGI,SK-MEL-2 melanoma,> 100 µM
same,TGI,SNB-75 CNS,> 100 µM
same,TGI,HCT-116 colon,> 100 µM
same,TGI,BT-549 breast,> 100 µM
same,TGI,A498 renal,> 100 µM
same,TGI,SNB-19 CNS,> 100 µM
same,TGI,SF-539 CNS,> 100 µM
same,TGI,EKVX NSCLC,> 100 µM
same,TGI,CCRF-CEM leukemia,> 100 µM
same,TGI,OVCAR-8 ovarian,> 100 µM
same,TGI,HCT-15 colon,> 100 µM
same,TGI,NCI-H226 lung,> 100 µM
same,TGI,UO-31 renal,> 100 µM
same,TGI,UACC-257 melanoma,> 100 µM
same,TGI,DU-145 prostate,> 100 µM
same,TGI,MALME-3M melanoma,> 100 µM
same,TGI,HL-60(TB) leukemia,> 100 µM
same,TGI,SW-620 colon,> 100 µM
same,TGI,LOX IMVI melanoma,> 100 µM
same,TGI,MDA-MB-435,> 100 µM
same,TGI,OVCAR-5 ovarian,> 100 µM
same,TGI,IGROV1 ovarian,> 100 µM
same,TGI,NCI-H460 lung,> 100 µM
same,TGI,COLO 205 colon,> 100 µM
same,TGI,NCI-H23 lung,> 100 µM
same,TGI,SK-OV-3 ovarian,> 100 µM
same,TGI,SR leukemia,> 100 µM
same,TGI,K-562 leukemia,> 100 µM
same,TGI,RXF 393 renal,> 100 µM
same,TGI,HS 578T breast,> 100 µM
same,TGI,M14 melanoma,> 100 µM
same,TGI,SK-MEL-5 melanoma,> 100 µM
same,TGI,RPMI-8226 leukemia,> 100 µM
same,TGI,OVCAR-3 ovarian,> 100 µM
same,TGI,SK-MEL-28 melanoma,> 100 µM
same,TGI,ACHN renal,> 100 µM
same,TGI,NCI/ADR-RES ovarian,> 100 µM
same,TGI,PC-3 prostate,> 100 µM
same,TGI,T-47D breast,> 100 µM
same,TGI,MCF7 breast,> 100 µM
same,TGI,SF-295 CNS,> 100 µM
same,TGI,KM12 colon,> 100 µM
same,TGI,SF-268 CNS,> 100 µM
same,TGI,TK-10 renal,> 100 µM
